Consider one molecule from patent US20120129842A1, “BISTHIAZOLE INHIBITORS OF PRO-MATRIX METALLOPROTEINASE ACTIVATION” (priority 2010, published 2012).

Assay [1] deals with T1, full-length proMMP9(1-707) (SEQ ID NO:1) (Homo sapiens, UniProt P14780, R574P).
T1 construct: made in house; host or cells: HEK293 (proMMP9, secreted); E. coli (MMP3)
Put plainly: proMMP9/MMP3 P126 Activation Assay. It counts as biochemical. The conditions noted are these: 20 nM proMMP9, 20 nM MMP3, 80 min 37° C. The method, then: The reaction volume was 50 μL. […] Reactivity of residual MMP3 towards P-126 substrate was minimal under these conditions.

A further assay addresses T2, proMMP9 (Rattus norvegicus, UniProt P50282).
T2 construct: endogenous in cells; host or cells: primary synoviocytes from arthritic female Lewis rats, TNFα-stimulated in collagen gels
Put plainly: Activation of proMMP9 in rat synoviocyte cultures (Western blot). It counts as cell-based. Conditions: 80 kD band, pAb-1246. An excerpt:
A primary synoviocytes line was derived from the periarticular tissue of arthritic rats. Arthritis was induced in female Lewis rats following an i.p. administration of streptococcal cell wall peptidoglycan polysaccharides (J Exp Med 1977; 146:1585-1602). Rats with established arthritis were sacrificed, and hind-limbs were severed, immersed briefly in 70% ethanol, and placed in a sterile hood. The skin was removed and the inflamed tissue surrounding the tibia-tarsal joint was harvested using a scalpel. Tissue from six rats was pooled, minced to approximately 8 mm^3 pieces, and cultured in Dulbecco's Modified Eagle's Medium (DMEM) containing 15% fetal calf serum (FCS). In the following weeks, cells migrated out of the tissue piece, proliferated, and formed a monolayer of adherent cells. The synoviocytes were lifted from culture plates with 0.05% trypsin and passaged weekly at 1:4 ratios in DMEM containing 10% FCS. Synoviocytes were used at passage 9 to investigate the ability of Example 64 to inhibit the maturation of MMP9 to active form.
Rat synoviocytes spontaneously expressed and activated MMP9 when cultured in collagen gels and stimulated with tumor necrosis factor-alpha (TNFα) (FIG. 1 and Table 3). Eight volumes of an ice-cold solution of 3.8 mg/mL rat tail collagen (Sigma Cat #C3867-1VL) were mixed with 1 volume of 1 M sodium bicarbonate and 1 volume of 10× Roswell Park Memorial Institute medium. The pH of the mixture was adjusted to pH 7 with 1 N sodium hydroxide and equal volumes of the pH-adjusted collagen solution were mixed with DMEM containing 0.8 million synoviocytes per mL. One half mL volumes were dispensed into Costar 24-well culture dishes and placed for one hr at 37° C. and 5% CO2, during which time the collagen solution formed a gel. Individual gels were dislodged into wells of 12-well Costar plates containing 1 mL/well of DMEM adjusted to contain 0.05% BSA and 100 ng/mL mouse TNFα (R&D Systems Cat #410-MT-010). […] After overnight culture at 37° C. and 5% CO2, wells were adjusted to contain an additional 0.5 mL of DMEM containing 0.05% BSA and Example 64 at 4× the final desired concentration (final culture volumes were 2 mL). The plates were cultured an additional 48 hrs, at which time 1 mL of conditioned media were harvested into fresh eppendorf tubes containing 40 μL/mL of a 50% slurry of gelatin-conjugated sepharose (GE Healthcare Cat #17-0956-01). Samples were rotated for 2 hrs at 4° C. before centrifugation 1 min×200 g. Supernatants were discarded. The gelatin-sepharose pellets were washed once with 1 mL of ice cold DMEM, resuspended in 50 μL of 2× reducing Leamli buffer and heated 5 min at 95° C. […] Chemiluminesence signal was analyzed using a ChemiDoc imaging system (BioRad Laboratories) and Quantity One® image software. […]
In general terms: In western blotting, separated proteins are transferred to a membrane and probed.

T2 sequence (P50282 20-708 limits assumed): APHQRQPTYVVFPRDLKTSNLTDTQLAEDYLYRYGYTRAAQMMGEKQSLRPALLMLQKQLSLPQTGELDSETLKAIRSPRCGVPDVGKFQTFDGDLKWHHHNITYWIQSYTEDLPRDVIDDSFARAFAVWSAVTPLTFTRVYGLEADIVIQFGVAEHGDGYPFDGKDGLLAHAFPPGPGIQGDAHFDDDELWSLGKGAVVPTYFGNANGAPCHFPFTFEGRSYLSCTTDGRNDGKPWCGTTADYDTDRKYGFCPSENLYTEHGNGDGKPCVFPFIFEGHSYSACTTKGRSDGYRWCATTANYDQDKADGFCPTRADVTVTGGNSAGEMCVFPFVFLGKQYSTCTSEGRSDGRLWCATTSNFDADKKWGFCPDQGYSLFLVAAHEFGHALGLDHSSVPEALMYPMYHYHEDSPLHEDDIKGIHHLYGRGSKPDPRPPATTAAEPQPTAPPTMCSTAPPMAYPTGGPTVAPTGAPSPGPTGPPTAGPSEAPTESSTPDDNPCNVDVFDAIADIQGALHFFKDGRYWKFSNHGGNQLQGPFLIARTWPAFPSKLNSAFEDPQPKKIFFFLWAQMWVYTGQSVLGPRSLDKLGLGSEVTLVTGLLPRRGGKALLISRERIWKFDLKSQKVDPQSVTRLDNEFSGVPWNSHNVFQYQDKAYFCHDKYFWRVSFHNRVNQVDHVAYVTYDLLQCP
T1 sequence (P14780 20-707 R574P): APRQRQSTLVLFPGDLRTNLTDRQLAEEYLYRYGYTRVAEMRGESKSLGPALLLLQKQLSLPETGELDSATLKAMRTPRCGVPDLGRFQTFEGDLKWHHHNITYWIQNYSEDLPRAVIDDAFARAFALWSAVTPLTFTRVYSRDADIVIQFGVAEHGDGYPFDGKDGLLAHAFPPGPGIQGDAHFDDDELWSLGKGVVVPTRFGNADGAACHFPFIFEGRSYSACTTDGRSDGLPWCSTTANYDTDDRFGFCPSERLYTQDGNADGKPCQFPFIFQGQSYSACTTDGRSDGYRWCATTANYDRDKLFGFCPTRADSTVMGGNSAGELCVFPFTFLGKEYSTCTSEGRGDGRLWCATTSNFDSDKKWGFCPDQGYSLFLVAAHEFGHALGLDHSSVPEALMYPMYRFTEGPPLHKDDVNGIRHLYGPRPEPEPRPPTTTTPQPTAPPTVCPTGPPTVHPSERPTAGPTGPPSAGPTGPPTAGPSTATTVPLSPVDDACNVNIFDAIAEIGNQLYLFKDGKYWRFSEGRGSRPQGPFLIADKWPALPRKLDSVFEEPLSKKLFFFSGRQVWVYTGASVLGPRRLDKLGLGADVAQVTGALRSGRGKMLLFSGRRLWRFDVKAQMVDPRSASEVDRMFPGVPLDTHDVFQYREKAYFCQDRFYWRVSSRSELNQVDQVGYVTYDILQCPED

As to `Cc1nc(C)c(-c2csc(Nc3cc(S(N)(=O)=O)ccc3OC(C)C)n2)s1` [Example 64, 3-(2′,4′-Dimethyl-[4,5′]bithiazolyl-2-ylamino)-4-isopropoxy-benzenesulfonamide.HBr], the IC50 (in general, the midpoint of a concentration-inhibition curve) in assay [1] was 180 nM. Moreover, 0.37 µM produced 12% inhibition at proMMP9 (0.37 μM). For the same molecule, the inhibition (in general, the change of the read-out against control, counted positive when it falls) at 1.1 µM on proMMP9 (1.1 μM) was found to be 46%. On proMMP9 (3.3 μM), this molecule displayed an inhibition at 3.3 µM of 86%. The inhibition at 10 µM on proMMP9 (10 μM) amounted to 97%.
